Laboratory results published in US20210196678A1, “SELECTIVE ANDROGEN RECEPTOR DEGRADER (SARD) LIGANDS AND METHODS OF USE THEREOF” (University of Tennessee Research Foundation, priority 2018, published 2021).
“And” between values parts separate entries of the source, which are not always exact repeats. Identical values can stand only once. “Also recorded” adds a separate entry of the source.

Experiments:
[1] = SARD compound serum concentrations in Hershberger rats (LC-MS/MS); details: for Conc of 1065: serum of individual rats, 24-30 hours after the last dose, standards in nM
[2] = HLM metabolism (half-life); format: in vitro ADME, human; details: for HLM Metabolism (H.L. min): human liver microsomes half-life
Procedure: (§1) Table 4 reports the in vitro efficacy (transactivation/degradation) and metabolism (rat liver microsomes (RLM) and human LM (HLM) half-lives) data, in vivo efficacy (S.V. and prostate % diff in rats) and serum concentration in rats for all the compounds in the 20 mg/kg Hershberger experiment. […].

[3] = RLM metabolism (half-life); format: in vitro ADME; details: rat liver microsomes half-life
Procedure: as §1

[4] = system: Intact Sprague Dawley rats; assay: Hershberger assay, seminal vesicles and prostate weights; format: in vivo, rat
Procedure: Dosing solutions were prepared in 20% DMSO+80% PEG. Fourteen days after the initiation of treatment, animals were sacrificed and tissue weights were recorded. Body weights were measured on day 1 and at the time of sacrifice. Tissue weights were normalized to body weight and represented as percent change from vehicle-treated animals.

full length AR = assay: LNCaP or AD1 degradation (full length AR, Western blot); format: cell-based
Procedure: The numbers under each lane represents the % change from vehicle. The bands were quantified using ImageJ® software. For each lane, the AR band was divided by GAPDH band and the % difference from vehicle was calculated and represented under each lane. The numbers shown are 0 (no degradation) or represented as decreases in AR levels normalized for GAPDH levels (some values represented as positive but still indicate degradation).
Method: LNCaP or AD1 cells expressing full length AR were plated at 750,000-1,000,000 cells/well of a 6 well plate in growth medium (RPMI+10% FBS). Twenty four hours after plating, medium was changed to RPMI+1% csFBS without phenol red and maintained in this medium for 2 days. […] Protein was extracted using salt-containing lysis buffer with three freeze-thaw cycles. Protein concentration was estimated and five microgram of total protein was loaded on a SDS-PAGE, fractionated, and transferred to a PVDF membrane. […]
The numbers under each lane represents the % change from vehicle. The bands were quantified using ImageJ software. For each lane, the AR band was divided by GAPDH band and the % difference from vehicle was calculated and represented under each lane The numbers shown are 0 (no degradation) or represented as decreases in AR levels normalized for GAPDH levels (some values represented as positive but still indicate degradation).

hAR-LBD (633-919) = target: T1, hAR-LBD (633-919) (Homo sapiens, UniProt P10275); assay: Ligand binding assay, GST-AR-LBD with [3H]mibolerone
T1 construct: GST (N); made in house
T1 sequence (P10275 634-920): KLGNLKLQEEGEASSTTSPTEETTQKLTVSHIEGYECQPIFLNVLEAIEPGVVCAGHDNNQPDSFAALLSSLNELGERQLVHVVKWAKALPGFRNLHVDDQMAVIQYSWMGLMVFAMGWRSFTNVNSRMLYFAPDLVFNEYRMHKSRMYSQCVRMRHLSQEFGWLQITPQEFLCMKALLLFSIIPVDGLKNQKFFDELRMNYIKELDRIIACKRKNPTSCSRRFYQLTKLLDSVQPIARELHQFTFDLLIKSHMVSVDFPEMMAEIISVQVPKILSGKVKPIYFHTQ
Procedure: Objective: To determine SARDs binding affinity to the AR-LBD.
Non-specific binding was then subtracted from total binding to determine specific binding and non-linear regression for ligand binding curve with one site saturation to determine the Kd of mibolerone.
Following incubation, the ligand bound AR-LBD complex was isolated using Bio Gel HT® hydroxyapatite, washed and counted in a scintillation counter after adding scintillation cocktail.

AR wildtype (wt) = AR wildtype (wt) (Homo sapiens, UniProt P10275); assay: Transactivation assay with wt AR (GRE-LUC luciferase); format: cell-based
Chain of AR wildtype (wt) (P10275 whole entry): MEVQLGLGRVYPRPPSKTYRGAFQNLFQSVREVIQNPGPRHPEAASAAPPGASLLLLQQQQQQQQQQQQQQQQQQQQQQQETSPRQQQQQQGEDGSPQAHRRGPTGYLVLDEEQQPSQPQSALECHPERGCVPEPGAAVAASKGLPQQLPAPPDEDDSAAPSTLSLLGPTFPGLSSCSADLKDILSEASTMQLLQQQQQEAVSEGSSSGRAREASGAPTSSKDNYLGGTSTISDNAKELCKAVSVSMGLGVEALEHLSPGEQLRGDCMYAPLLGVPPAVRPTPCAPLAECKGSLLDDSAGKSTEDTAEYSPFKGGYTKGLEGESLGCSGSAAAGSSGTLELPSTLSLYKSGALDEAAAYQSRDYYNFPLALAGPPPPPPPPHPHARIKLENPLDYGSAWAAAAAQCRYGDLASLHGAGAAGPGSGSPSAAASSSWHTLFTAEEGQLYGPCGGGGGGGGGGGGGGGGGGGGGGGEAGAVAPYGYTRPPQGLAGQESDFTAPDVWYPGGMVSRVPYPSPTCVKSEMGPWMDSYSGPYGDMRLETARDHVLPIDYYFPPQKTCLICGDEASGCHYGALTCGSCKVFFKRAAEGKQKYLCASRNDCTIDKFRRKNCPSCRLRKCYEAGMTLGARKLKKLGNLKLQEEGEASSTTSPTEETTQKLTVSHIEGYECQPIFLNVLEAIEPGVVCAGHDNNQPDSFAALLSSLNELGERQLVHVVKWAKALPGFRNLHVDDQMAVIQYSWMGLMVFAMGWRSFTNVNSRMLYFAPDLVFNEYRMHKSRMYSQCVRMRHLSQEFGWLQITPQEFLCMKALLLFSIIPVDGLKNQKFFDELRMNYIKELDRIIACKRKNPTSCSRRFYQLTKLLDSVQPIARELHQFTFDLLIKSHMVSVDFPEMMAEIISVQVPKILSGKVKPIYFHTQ
Procedure: COS7 cells were transfected with 0.25 μg GRE-LUC, 0.01 g CMV-renilla LUC, and 25 ng CMV-hAR using Lipofectamine in OptiMEM® medium. […] Firefly luciferase values were normalized to renilla luciferase values.
Firefly luciferase values were normalized to renilla luciferase values.
Human AR cloned into CMV vector backbone was used for the transactivation study. HEK-293 cells were plated at 120,000 cells per well of a 24 well plate in DME+5% csFBS. […] Data are represented as IC50 obtained from four parameter logistics curve.

PR = target: T2, PR (Homo sapiens, UniProt P06401); details: positive control
T2 sequence (P06401 1-933): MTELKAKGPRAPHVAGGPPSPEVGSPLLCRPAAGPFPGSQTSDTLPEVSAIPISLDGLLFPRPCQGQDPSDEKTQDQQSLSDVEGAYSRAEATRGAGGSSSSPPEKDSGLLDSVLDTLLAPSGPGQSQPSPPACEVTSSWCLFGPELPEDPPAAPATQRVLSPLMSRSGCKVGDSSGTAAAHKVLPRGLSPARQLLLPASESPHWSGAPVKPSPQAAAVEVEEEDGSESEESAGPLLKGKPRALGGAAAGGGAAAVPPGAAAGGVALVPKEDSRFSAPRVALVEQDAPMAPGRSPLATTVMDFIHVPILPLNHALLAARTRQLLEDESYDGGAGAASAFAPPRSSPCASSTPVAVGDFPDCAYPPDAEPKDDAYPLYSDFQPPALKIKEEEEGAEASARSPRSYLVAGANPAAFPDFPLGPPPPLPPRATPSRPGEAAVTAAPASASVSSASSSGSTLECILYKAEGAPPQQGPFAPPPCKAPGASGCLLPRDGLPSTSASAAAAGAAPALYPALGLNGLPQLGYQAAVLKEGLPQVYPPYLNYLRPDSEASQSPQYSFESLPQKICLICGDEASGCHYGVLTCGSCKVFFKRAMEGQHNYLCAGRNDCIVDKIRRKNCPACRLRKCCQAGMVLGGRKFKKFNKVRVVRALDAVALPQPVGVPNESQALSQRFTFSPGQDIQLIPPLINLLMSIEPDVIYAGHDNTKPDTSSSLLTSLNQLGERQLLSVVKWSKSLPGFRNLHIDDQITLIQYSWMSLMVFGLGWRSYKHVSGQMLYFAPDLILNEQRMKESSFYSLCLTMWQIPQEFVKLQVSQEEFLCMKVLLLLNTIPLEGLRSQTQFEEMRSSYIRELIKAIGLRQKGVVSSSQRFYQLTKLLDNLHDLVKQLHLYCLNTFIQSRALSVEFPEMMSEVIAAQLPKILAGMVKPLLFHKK

[5] = Table 2, rats, 20 mg/kg daily for 13 days
[6] = 20 mg/kg Hershberger experiment

## C[C@](O)(Cn1cc(F)cn1)C(=O)Nc1ccc(C#N)c(C(F)(F)F)c1.O=C(O)C(O)C(O)C(=O)O [1002 tartarate]
[1]; [5]
  Serum conc.: 12.4 nM

## C[C@](O)(Cn1ccc2cc(F)ccc21)C(=O)Nc1ccc(C#N)c(C(F)(F)F)c1 [Compound 11]
[2]
  HLM Metabolism (H.L. min): 6 min

## C[C@](O)(Cn1cc(F)cn1)C(=O)Nc1ccc(C#N)c(C(F)(F)F)c1 [Compound 1002]
[1]; [5]
  Serum conc.: 9.3 nM

## C[C@](O)(Cn1cc(C(F)(F)F)cn1)C(=O)Nc1ccc(C#N)c(C(F)(F)F)c1 [Compound 1017]
[2]
  HLM Metabolism (H.L. min): 400 min
[3]
  RLM Metabolism (H.L. min): 400 min

## C[C@](O)(Cn1cc(F)cn1)C(=O)Nc1cnc(C#N)c(C(F)(F)F)c1 [Compound 1022]
[2]
  HLM Metabolism (H.L. min): 82 min
[1]; [5]
  Serum conc.: 64 nM
[1]; Table 4, rats, 20 mg/kg
  Serum conc.: 33 nM
[3]
  RLM Metabolism (H.L. min): 78 min

## C[C@](O)(Cn1cc(C#N)cn1)C(=O)Nc1ccc(C#N)c(C(F)(F)F)c1 [Compound 1048]
[2]
  HLM Metabolism (H.L. min): 400 min
[3]
  RLM Metabolism (H.L. min): 86 min

## C[C@](O)(Cn1cc(Br)c(F)n1)C(=O)Nc1ccc(C#N)c(C(F)(F)F)c1 [Compound 1058, (S)-3-(4-Bromo-3-fluoro-1H-pyrazol-1-yl)-N-(4-cyano-3-(trifluoromethyl)phenyl)-2-hydroxy-2-methylpropanamide]
[2]
  HLM Metabolism (H.L. min): 138 min
[3]
  RLM Metabolism (H.L. min): 400 min

## C[C@](O)(Cn1cc(C#N)cn1)C(=O)Nc1cnc(C#N)c(C(F)(F)F)c1 [Compound 1065]
[4]; [6]
  (Prostate) % diff: .58%
  (S.V.) % diff: .88%
[4]; 20 mg/kg, compared to 1002 or castration
  Seminal vesicles weight reduction / in vivo AR antagonism, in words: full AR antagonism in vivo; also recorded: reached castration levels; also recorded: significantly improved efficacy
[4]; FIGS. 7C and 7D
  Prostate weight reduction, improved efficacy compared to 1002: approximately 45%
[2]; after 60 min
  HLM Metabolism, % metabolized after 60 min: 10%
[2]
  HLM Metabolism (H.L. min): STABLE
[1]; Table 4, rats, 20 mg/kg
  Serum conc.: 561 nM
[1]; 1 mg/kg, 1 mg/kg
  Conc of 1065: 81.58 and 87.25 and 120.1244 and 134.5505 and 129.9323
[1]; 5 mg/kg, 5 mg/kg
  Conc of 1065: 630.4879 and 691.1901 and 485.4264 and 967.3936 and 798.7984
[1]; 10 mg/kg, 10 mg/kg
  Conc of 1065: 637.641 and 915.1312 and 824.8076 and 681.9936 and 795.917
[1]; 20 mg/kg, 20 mg/kg
  Conc of 1065: 1286.902 and 1298.179 and 1360.687 and 1397.834 and 1193.986
[3]
  RLM Metabolism (H.L. min): 84 min

## C[C@](O)(Cn1cc(Cl)c(Br)n1)C(=O)Nc1ccc(C#N)c(C(F)(F)F)c1 [Compound 1066]
[2]
  HLM Metabolism (H.L. min): 319 min
[3]
  RLM Metabolism (H.L. min): 300 min

## C[C@@H](Cn1cc(F)cn1)NC(=O)c1ccc(C#N)c(C(F)(F)F)c1 [Compound 1068, (S)-4-Cyano-N-(1-(4-fluoro-1H-pyrazol-1-yl)propan-2-yl)-3-(trifluoromethyl)benzamide]
Full length AR; first of two values in the cell, 1 μM
  SARD Activity Full Length % inhibition at 1 μM: 62%
Full length AR; second of two values in the cell, 10 μM
  SARD Activity Full Length % inhibition at 10 μM: 96%
hAR-LBD (633-919)
  wtAR Binding Ki (nM) (DHT = 1 nM): no binding
AR wildtype (wt)
  IC50: 417 nM

## CNC(=O)c1ccc(N2C(=S)N(c3ccc(C#N)c(C(F)(F)F)c3)C(=O)C2(C)C)cc1F [Enzalutamide, reference compound]
[4]; enzalutamide 30 mg/kg
  Seminal vesicles weight reduction compared to 1002, in words: marginally improved

## CC(=O)[C@H]1CC[C@H]2[C@@H]3CCC4=CC(=O)CC[C@]4(C)[C@H]3CC[C@]12C [progesterone]
PR
  PR agonism, in words: potent and full efficacy agonist activity
